Measurements published in US9156801B2, “2-substituted oleanolic acid derivative, method preparing for same, and application thereof” (HANGZHOU BENSHENG PHARMACEUTICAL CO., LTD., priority 2011, dated 2015).
≈ marks a conversion by molar mass, not a printed value.

Assays:
Hela cell line = experiment: solid tumor cell growth inhibition, MTT; format: cell-based; details: Homo sapiens, 72 h; for IC50: HeLa; for inhibition at 16 µg/mL: Hela, 16 μg/mL compound, read-out: IR (cell proliferation inhibition rate)
In short: (§1)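 A 72 h continuous exposure to the oleanolic acid derivatives at different concentrations followed a 24 h settling period for cells seeded at 4000 per well. Medium was DMEM high glucose with 10% FBS, 37° C, 5% CO2. Surviving cells were assessed by MTT.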

Becap37 cell line = experiment: solid tumor cell growth inhibition, MTT; format: cell-based; details: Homo sapiens; for inhibition at 16 µg/mL: Becap37, 16 μg/mL compound, 72 h, read-out: IR (cell proliferation inhibition rate); for IC50: Becap37, 72 h
In short: as §1

CNE cell line = experiment: solid tumor cell growth inhibition, MTT; format: cell-based; details: Homo sapiens, 72 h; for inhibition at 16 µg/mL: 16 μg/mL compound, read-out: IR (cell proliferation inhibition rate)
In short: as §1

CaES-17 cell line = experiment: solid tumor cell growth inhibition, MTT; format: cell-based; details: Homo sapiens, CaEs17; for inhibition at 16 µg/mL: CaES-17, 16 μg/mL compound, 72 h, read-out: IR (cell proliferation inhibition rate); for IC50: CaES-17, 72 h
In short: as §1

PANC-1 cell line = experiment: solid tumor cell growth inhibition, MTT; format: cell-based; details: Homo sapiens; for IC50: PANC-1, 72 h; for inhibition at 16 µg/mL: PANC-1, 16 μg/mL compound, 72 h, read-out: IR (cell proliferation inhibition rate)
In short: as §1

Hep-2 cell line = experiment: solid tumor cell growth inhibition, MTT; format: cell-based; details: Homo sapiens; for IC50: HEp-2, 72 h; for inhibition at 16 µg/mL: Hep-2, 16 μg/mL compound, 72 h, read-out: IR (cell proliferation inhibition rate)
In short: as §1

MGC 803 cell line = experiment: solid tumor cell growth inhibition, MTT; format: cell-based; details: Homo sapiens; for inhibition at 16 µg/mL: MGC 803, 16 μg/mL compound, 72 h, read-out: IR (cell proliferation inhibition rate); for IC50: MGC 803, 72 h
In short: as §1

MG-63 cell line = experiment: solid tumor cell growth inhibition, MTT; format: cell-based; details: Homo sapiens; for IC50: MG-63, 72 h; for inhibition at 16 µg/mL: MG-63, 16 μg/mL compound, 72 h, read-out: IR (cell proliferation inhibition rate)
In short: as §1

PC-3 cell line = experiment: solid tumor cell growth inhibition, MTT; format: cell-based; details: Homo sapiens; for IC50: PC-3, 72 h; for inhibition at 16 µg/mL: PC-3, 16 μg/mL compound, 72 h, read-out: IR (cell proliferation inhibition rate)
In short: as §1

U87 MG cell line = experiment: solid tumor cell growth inhibition, MTT; format: cell-based; details: Homo sapiens, U-87 MG, 72 h; for inhibition at 16 µg/mL: 16 μg/mL compound, read-out: IR (cell proliferation inhibition rate)
In short: as §1

A549 cell line = experiment: solid tumor cell growth inhibition, MTT; format: cell-based; details: Homo sapiens; for IC50: A549, 72 h; for inhibition at 16 µg/mL: A549, 16 μg/mL compound, 72 h, read-out: IR (cell proliferation inhibition rate)
In short: as §1

RKO cell line = experiment: solid tumor cell growth inhibition, MTT; format: cell-based; details: Homo sapiens, 72 h; for inhibition at 16 µg/mL: 16 μg/mL compound, read-out: IR (cell proliferation inhibition rate)
In short: as §1

SK-OV-3 cell line = experiment: solid tumor cell growth inhibition, MTT; format: cell-based; details: Homo sapiens; for IC50: SK-OV-3, 72 h; for inhibition at 16 µg/mL: SK-OV-3, 16 μg/mL compound, 72 h, read-out: IR (cell proliferation inhibition rate)
In short: as §1

NB4 cell line = experiment: leukemia cell growth inhibition, MTT; format: cell-based; details: Homo sapiens, NB-4; for inhibition at 16 µg/mL: NB4, 16 μg/mL compound, 72 h, read-out: IR (cell proliferation inhibition rate); for IC50: NB4, 72 h
In short: (§2)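 6000 cells per well in RPMI 1640 with 10% FBS were exposed to the oleanolic acid derivatives at a range of concentrations for 72 h at 37 °C, 5% CO2. Viable cells were measured by MTT, with untreated control inhibition set at 0%.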

K562/adr cell line = experiment: leukemia cell growth inhibition, MTT; format: cell-based; details: Homo sapiens, 72 h; for IC50: K562/Adr; for inhibition at 16 µg/mL: K562/adr, 16 μg/mL compound, read-out: IR (cell proliferation inhibition rate)
In short: as §2

Jurkat cell line = experiment: leukemia cell growth inhibition, MTT; format: cell-based; details: Homo sapiens, 72 h; for inhibition at 16 µg/mL: 16 μg/mL compound, read-out: IR (cell proliferation inhibition rate)
In short: as §2

Kasumi-1 cell line = experiment: leukemia cell growth inhibition, MTT; format: cell-based; details: Homo sapiens; for inhibition at 16 µg/mL: Kasumi-1, 16 μg/mL compound, 72 h, read-out: IR (cell proliferation inhibition rate); for IC50: Kasumi-1, 72 h
In short: as §2

H9 cell line = experiment: leukemia cell growth inhibition, MTT; format: cell-based; details: Homo sapiens; for IC50: H9, 72 h; for inhibition at 16 µg/mL: H9, 16 μg/mL compound, 72 h, read-out: IR (cell proliferation inhibition rate)
In short: as §2

RPMI8226 cell line = experiment: multiple myeloma cell growth inhibition, MTT; format: cell-based; details: Homo sapiens, RPMI-8226; for inhibition at 16 µg/mL: RPMI8226, 16 μg/mL compound, 72 h, read-out: IR (cell proliferation inhibition rate); for IC50: RPMI8226, 72 h
In short: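 RPMI8226 cells (6000 per well) in RPMI 1640 with 10% FBS were exposed to several concentrations of compound for 72 h at 37° C and 5% CO2. Viable cells were quantified by MTT, with inhibition set to 0% in untreated controls.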

Hep G2 cell line = experiment: solid tumor cell growth inhibition, MTT; format: cell-based, human; details: Homo sapiens; for inhibition at 16 µg/mL: HepG2, 72 h, Hep G2, 16 μg/mL compound, 72 h, read-out: IR (cell proliferation inhibition rate); for IC50: HepG2, Hep G2, 72 h
In short: as §1

| Compound | IC50 (Hela cell line) [µg/mL] | inhibition at 16 µg/mL (Hela cell line) [%] | inhibition at 16 µg/mL (Becap37 cell line) [%] | IC50 (Becap37 cell line) [µg/mL] | inhibition at 16 µg/mL (CNE cell line) [%] | IC50 (CNE cell line) [µg/mL] | inhibition at 16 µg/mL (CaES-17 cell line) [%] | IC50 (CaES-17 cell line) [µg/mL] | IC50 (PANC-1 cell line) [µg/mL] | inhibition at 16 µg/mL (PANC-1 cell line) [%] | IC50 (Hep-2 cell line) [µg/mL] | inhibition at 16 µg/mL (Hep-2 cell line) [%] | inhibition at 16 µg/mL (MGC 803 cell line) [%] | IC50 (MGC 803 cell line) [µg/mL] | IC50 (MG-63 cell line) [µg/mL] | inhibition at 16 µg/mL (MG-63 cell line) [%] | IC50 (PC-3 cell line) [µg/mL] | inhibition at 16 µg/mL (PC-3 cell line) [%] | inhibition at 16 µg/mL (U87 MG cell line) [%] | IC50 (U87 MG cell line) [µg/mL] | also measured |
| --- | --- | --- | --- | --- | --- | --- | --- | --- | --- | --- | --- | --- | --- | --- | --- | --- | --- | --- | --- | --- | --- |
| CC1(C)CC[C@]2(C(=O)O)CC[C@]3(C)C(=CC[C@@H]4[C@@]5(C)CC(C(=O)NCCN6CCCC6)C(=O)C(C)(C)[C@@H]5CC[C@]43C)[C@@H]2C1 (stereo partly drawn) [BS-OA-105] | 7.29 (≈ 12.3 µM) | 68.1 | 43.7 | > 16 | 54.5 | 10.6 (≈ 17.8 µM) | 45 | 18.9 (≈ 31.7 µM) | > 16 | 16.9 | > 16 | 28.4 | 29.2 | > 16 | 12.6 (≈ 21.1 µM) | 54.6 | > 16 | 18.4 | 61.7 | 2.31 (≈ 3.88 µM) | IC50 (A549 cell line): > 16 µg/mL; inhibition at 16 µg/mL (A549 cell line): 24%; inhibition at 16 µg/mL (RKO cell line): 8.6%; IC50 (RKO cell line): > 16 µg/mL; IC50 (SK-OV-3 cell line): > 16 µg/mL; inhibition at 16 µg/mL (SK-OV-3 cell line): 5%; inhibition at 16 µg/mL (NB4 cell line): 74.7%; IC50 (NB4 cell line): 10.6 µg/mL (≈ 17.8 µM); IC50 (K562/adr cell line): 6.52 µg/mL (≈ 11 µM); inhibition at 16 µg/mL (K562/adr cell line): 85%; inhibition at 16 µg/mL (Jurkat cell line): 37.5%; IC50 (Jurkat cell line): > 16 µg/mL; inhibition at 16 µg/mL (Kasumi-1 cell line): 36.6%; IC50 (Kasumi-1 cell line): > 16 µg/mL; IC50 (H9 cell line): > 16 µg/mL; inhibition at 16 µg/mL (H9 cell line): 31.5%; inhibition at 16 µg/mL (RPMI8226 cell line): 81.8%; IC50 (RPMI8226 cell line): 10.5 µg/mL (≈ 17.7 µM); inhibition at 16 µg/mL (Hep G2 cell line): 29.5%; IC50 (Hep G2 cell line): > 16 µg/mL |
| CCN(CC)CCNC(=O)C1C[C@@]2(C)C(CC[C@]3(C)C2CC=C2C4CC(C)(C)CC[C@]4(C(=O)O)CC[C@]23C)C(C)(C)C1=O (stereo partly drawn) [BS-OA-106] | > 16 | 34.6 | 27.5 | > 16 | 44.3 | > 16 | 10 | > 16 | > 16 | 16.9 | > 16 | 3.8 | 13.4 | > 16 | > 16 | 4.9 | > 16 | -6.4 | 7.2 | > 16 | IC50 (A549 cell line): > 16 µg/mL; inhibition at 16 µg/mL (A549 cell line): 31.5%; inhibition at 16 µg/mL (RKO cell line): 5.3%; IC50 (RKO cell line): > 16 µg/mL; IC50 (SK-OV-3 cell line): > 16 µg/mL; inhibition at 16 µg/mL (SK-OV-3 cell line): -17%; inhibition at 16 µg/mL (NB4 cell line): 86.6%; IC50 (NB4 cell line): 7.32 µg/mL (≈ 12.3 µM); IC50 (K562/adr cell line): 4.12 µg/mL (≈ 6.9 µM); inhibition at 16 µg/mL (K562/adr cell line): 98.2%; inhibition at 16 µg/mL (Jurkat cell line): 43.2%; IC50 (Jurkat cell line): > 16 µg/mL; inhibition at 16 µg/mL (Kasumi-1 cell line): 43%; IC50 (Kasumi-1 cell line): > 16 µg/mL; IC50 (H9 cell line): > 16 µg/mL; inhibition at 16 µg/mL (H9 cell line): 44.6%; inhibition at 16 µg/mL (RPMI8226 cell line): 68.3%; IC50 (RPMI8226 cell line): 12.2 µg/mL (≈ 20.5 µM); inhibition at 16 µg/mL (Hep G2 cell line): 33.6%; IC50 (Hep G2 cell line): > 16 µg/mL |
| CCN(CC)CCCNC(=O)C1C[C@@]2(C)C(CC[C@]3(C)C2CC=C2C4CC(C)(C)CC[C@]4(C(=O)O)CC[C@]23C)C(C)(C)C1=O (stereo partly drawn) [BS-OA-108] | > 16 | 43 | 38.4 | > 16 | 42.7 | > 16 | 32 | > 16 | > 16 | 21.6 | > 16 | 22.7 | 13.1 | > 16 | > 16 | 47.4 | > 16 | -8.2 | 18.5 | > 16 | IC50 (A549 cell line): > 16 µg/mL; inhibition at 16 µg/mL (A549 cell line): 27.5%; inhibition at 16 µg/mL (RKO cell line): 63.2%; IC50 (RKO cell line): 14.3 µg/mL (≈ 23.4 µM); IC50 (SK-OV-3 cell line): > 16 µg/mL; inhibition at 16 µg/mL (SK-OV-3 cell line): -15.6%; inhibition at 16 µg/mL (NB4 cell line): 92.4%; IC50 (NB4 cell line): 6.86 µg/mL (≈ 11.2 µM); IC50 (K562/adr cell line): 4.83 µg/mL (≈ 7.91 µM); inhibition at 16 µg/mL (K562/adr cell line): 96.1%; inhibition at 16 µg/mL (Jurkat cell line): 66.5%; IC50 (Jurkat cell line): 12.6 µg/mL (≈ 20.6 µM); inhibition at 16 µg/mL (Kasumi-1 cell line): 74.5%; IC50 (Kasumi-1 cell line): 10.2 µg/mL (≈ 16.6 µM); IC50 (H9 cell line): 15.3 µg/mL (≈ 25 µM); inhibition at 16 µg/mL (H9 cell line): 57.7%; inhibition at 16 µg/mL (RPMI8226 cell line): 97.3%; IC50 (RPMI8226 cell line): 6.4 µg/mL (≈ 10.5 µM); inhibition at 16 µg/mL (Hep G2 cell line): 42.3%; IC50 (Hep G2 cell line): > 16 µg/mL |
